{
  "source": "patent US12583868B2",
  "about": "“JAK inhibitors and methods for synthesizing and using thereof” (GALDERMA HOLDING SA, priority 2020, dated 2026)",
  "key": {"[1]": {"experiment": "Intrinsic clearance in hepatocytes, minipig", "assay_type": "in vitro ADME, male Göttingen minipig", "settings": "2.5 μM", "description": "(§1) The intrinsic clearance was assessed in cryopreserved Hepatocytes obtained by Human livers donors of mix gender pooled together, male balb-c mouse, male Wistar Han rats and male Göttingen minipig, by looking at the parent compound disappearance. The incubations were performed using a final concentration of viable cells of 1 million/ml (viability above 70%) and test item of 2.5 μM. Incubations were followed up to 2 h. Aliquotes were withdrawn at different time points and reaction quenched with acetonitrile. After centrifugation the supernatant was analyzed by HPLC/MS to quantify the remaining amount of parent in comparison with time 0. The clearance was calculated by fitting the log of the percentage remaining with Graphpad Prism ver.7."}, "[2]": {"biological_target": "T1, hERG channel (Homo sapiens, UniProt Q12809)", "T1 construct": "expressed in transfected cells; host or cells: CHO-K1", "T1 sequence (Q12809 whole entry)": "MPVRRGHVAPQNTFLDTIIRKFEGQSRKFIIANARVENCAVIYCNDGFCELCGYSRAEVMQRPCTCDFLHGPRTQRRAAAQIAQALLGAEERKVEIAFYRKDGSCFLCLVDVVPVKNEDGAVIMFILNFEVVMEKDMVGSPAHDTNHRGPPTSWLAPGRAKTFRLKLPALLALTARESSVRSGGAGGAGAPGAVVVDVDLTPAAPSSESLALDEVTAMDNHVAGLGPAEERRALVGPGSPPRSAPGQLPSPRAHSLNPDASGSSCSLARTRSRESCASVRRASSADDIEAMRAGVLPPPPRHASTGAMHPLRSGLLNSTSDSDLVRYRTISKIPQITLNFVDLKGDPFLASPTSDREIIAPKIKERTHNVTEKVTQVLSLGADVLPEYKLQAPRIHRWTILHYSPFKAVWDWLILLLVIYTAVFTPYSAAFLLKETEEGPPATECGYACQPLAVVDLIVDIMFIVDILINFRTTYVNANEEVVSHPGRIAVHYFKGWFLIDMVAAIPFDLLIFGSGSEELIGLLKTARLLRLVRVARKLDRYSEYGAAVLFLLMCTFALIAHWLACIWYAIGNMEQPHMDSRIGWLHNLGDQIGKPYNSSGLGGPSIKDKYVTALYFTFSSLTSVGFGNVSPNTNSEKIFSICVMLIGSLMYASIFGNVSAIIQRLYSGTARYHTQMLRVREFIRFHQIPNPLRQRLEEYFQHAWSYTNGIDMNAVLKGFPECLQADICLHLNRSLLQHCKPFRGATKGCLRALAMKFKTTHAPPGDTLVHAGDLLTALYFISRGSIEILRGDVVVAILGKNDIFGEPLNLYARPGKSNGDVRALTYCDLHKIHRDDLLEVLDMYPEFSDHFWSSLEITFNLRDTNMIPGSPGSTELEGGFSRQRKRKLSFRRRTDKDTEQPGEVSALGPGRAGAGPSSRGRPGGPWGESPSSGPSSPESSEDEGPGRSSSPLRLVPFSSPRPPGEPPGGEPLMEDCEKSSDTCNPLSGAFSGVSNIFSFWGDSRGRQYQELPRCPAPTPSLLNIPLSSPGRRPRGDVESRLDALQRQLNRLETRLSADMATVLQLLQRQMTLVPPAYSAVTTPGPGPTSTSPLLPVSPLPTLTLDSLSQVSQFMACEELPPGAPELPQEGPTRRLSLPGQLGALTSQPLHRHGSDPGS", "experiment": "In vitro hERG channel whole cell patch clamp", "assay_type": "cell-based", "settings": "CHO-K1 cells expressing hERG", "description": "Blockade of the delayed rectifier potassium current (IKr) encoded by hERG gene (human ether a go go-related gene) can lead to QT interval prolongation and is therefore investigated as part of the cardiac risk assessment. This channel is critical for the repolarisation of the cardiac membrane. The effect of the compounds on IKr was assessed by whole cell patch clamp in stably transfected CHO-K1 cells expressing hERG (Human Ether-a-go-go Related Gene) channel following superfusion at different concentrations up to 30 μM."}, "[3]": {"experiment": "In vivo pharmacokinetic analysis in minipig (iv)", "parameters": "species or system male Göttingen minipigs", "settings": "iv 1 mg/kg", "description": "Three male Göttingen minipigs. Compound was administered intravenously to fed animals at a target dose of 1 mg/kg, dose volume 1 mL/kg, in DMSO: hydroxypropyl-p-cyclodextrin 20% in phosphate buffer 60 mM pH 7 (5:95). Blood samples were collected at various time points. Blood samples were then assayed using a method based upon protein precipitation with acetonitrile followed by LC/MS/MS analysis. Non-compartmental methods were used for pharmacokinetic analysis of blood concentration versus time data."}, "[4]": {"experiment": "Protein binding analysis (RED), mouse plasma", "assay_type": "in vitro ADME, male balb-c mice", "settings": "5 μM", "description": "(§2) The protein binding was assessed in plasma of Human, male balb-c mice, male Wistar Han rat, male Göttingen minipig by rapid equilibrium dialysis (RED) devices. After the plasma and buffer phosphate 50 mM pH7.4 were equilibrated at 37° C., the compound was added to plasma to reach a final concentration of 5 μM. An aliquot of plasma was withdrawn immediately. Equilibration under mild agitation was continued for 4 h. The plasma and buffer were sampled and samples were quenched with 4 volumes of acetonitrile and centrifuged. Supernatant was quantified in HPLC/MS/MS to calculate the recovery and the percentage of compound dissolved in the buffer (unbound) and bound to plasma proteins."}, "[5]": {"experiment": "Protein binding analysis (RED), minipig plasma", "assay_type": "in vitro ADME", "settings": "male, Göttingen, pH 7.4, read-out: minipig FU", "description": "as §2"}, "[6]": {"experiment": "Chrom logD pH 7.4", "assay_type": "physicochemical"}, "[7]": {"biological_target": "T2, Tyk2 enzyme (Homo sapiens, UniProt P29597)", "T2 construct": "purchased Life Technologies PR8440C", "T2 sequence (P29597 whole entry)": "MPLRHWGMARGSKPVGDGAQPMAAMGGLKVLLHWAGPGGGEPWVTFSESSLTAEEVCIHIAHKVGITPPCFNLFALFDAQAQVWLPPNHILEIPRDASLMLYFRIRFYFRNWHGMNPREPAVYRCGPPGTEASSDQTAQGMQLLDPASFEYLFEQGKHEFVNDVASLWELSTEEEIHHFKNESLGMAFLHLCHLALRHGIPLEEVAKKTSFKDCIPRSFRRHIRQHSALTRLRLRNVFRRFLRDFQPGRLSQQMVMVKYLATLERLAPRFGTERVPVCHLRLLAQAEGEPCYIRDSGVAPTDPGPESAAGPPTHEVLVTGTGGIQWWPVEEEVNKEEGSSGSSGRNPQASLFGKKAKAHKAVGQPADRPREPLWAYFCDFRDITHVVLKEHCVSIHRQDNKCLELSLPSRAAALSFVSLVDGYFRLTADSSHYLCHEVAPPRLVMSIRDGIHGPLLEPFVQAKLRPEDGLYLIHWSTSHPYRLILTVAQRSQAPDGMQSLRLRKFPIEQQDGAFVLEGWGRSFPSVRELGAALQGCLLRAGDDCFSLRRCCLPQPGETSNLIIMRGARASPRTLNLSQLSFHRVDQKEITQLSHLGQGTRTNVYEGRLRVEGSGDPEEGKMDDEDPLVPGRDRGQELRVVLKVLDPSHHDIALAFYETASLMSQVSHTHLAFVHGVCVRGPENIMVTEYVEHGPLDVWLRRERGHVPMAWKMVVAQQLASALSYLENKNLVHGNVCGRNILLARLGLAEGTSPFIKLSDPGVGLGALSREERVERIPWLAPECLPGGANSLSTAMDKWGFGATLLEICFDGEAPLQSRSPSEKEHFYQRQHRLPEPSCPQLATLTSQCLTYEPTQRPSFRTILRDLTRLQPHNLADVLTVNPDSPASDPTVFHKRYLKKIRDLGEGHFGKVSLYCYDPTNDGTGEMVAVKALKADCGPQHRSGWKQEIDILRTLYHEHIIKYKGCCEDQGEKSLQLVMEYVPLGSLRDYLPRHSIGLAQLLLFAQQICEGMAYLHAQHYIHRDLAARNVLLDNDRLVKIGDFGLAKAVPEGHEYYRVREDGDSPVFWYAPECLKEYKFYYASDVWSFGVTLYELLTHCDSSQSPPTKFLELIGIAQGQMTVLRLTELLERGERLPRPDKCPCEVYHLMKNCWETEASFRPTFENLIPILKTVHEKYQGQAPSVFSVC", "experiment": "In vitro enzyme assay (Cisbio kinase assay), Tyk2", "assay_type": "biochemical", "settings": "ATP 300 μM; read-out: Enzymatic assay: Tyk2"}, "[8]": {"biological_target": "T3, CYP3A4 (Homo sapiens, UniProt P08684)", "T3 construct": "Human pooled liver microsomes of mixed gender (mainly Caucasian); from tissue; host or cells: pooled human liver microsomes", "T3 sequence (P08684 2-503)": "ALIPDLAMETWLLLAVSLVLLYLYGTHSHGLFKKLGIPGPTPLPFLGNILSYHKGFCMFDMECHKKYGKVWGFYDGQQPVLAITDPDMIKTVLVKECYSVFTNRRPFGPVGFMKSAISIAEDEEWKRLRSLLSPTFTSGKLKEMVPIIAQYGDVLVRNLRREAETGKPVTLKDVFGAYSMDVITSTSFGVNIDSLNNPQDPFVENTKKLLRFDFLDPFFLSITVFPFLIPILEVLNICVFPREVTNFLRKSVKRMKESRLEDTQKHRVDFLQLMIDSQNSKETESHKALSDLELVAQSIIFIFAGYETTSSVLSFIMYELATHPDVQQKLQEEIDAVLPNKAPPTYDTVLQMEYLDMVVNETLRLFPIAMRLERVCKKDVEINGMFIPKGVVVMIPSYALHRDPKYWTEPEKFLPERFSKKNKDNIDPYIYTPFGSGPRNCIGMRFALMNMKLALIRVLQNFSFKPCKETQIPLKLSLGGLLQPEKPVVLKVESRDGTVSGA", "experiment": "CYP3A inhibition in human liver microsomes", "assay_type": "in vitro ADME", "settings": "testosterone, CRL data, read-out: IC50 CYP3A4 testo."}, "[9]": {"experiment": "Intrinsic clearance in hepatocytes, mouse", "assay_type": "in vitro ADME, male balb-c mouse", "settings": "2.5 μM", "description": "as §1"}, "[10]": {"biological_target": "T4, Recombinant JAK1 (Homo sapiens, UniProt P23458)", "T4 construct": "purchased Life Technologies PV4775", "T4 sequence (P23458 whole entry)": "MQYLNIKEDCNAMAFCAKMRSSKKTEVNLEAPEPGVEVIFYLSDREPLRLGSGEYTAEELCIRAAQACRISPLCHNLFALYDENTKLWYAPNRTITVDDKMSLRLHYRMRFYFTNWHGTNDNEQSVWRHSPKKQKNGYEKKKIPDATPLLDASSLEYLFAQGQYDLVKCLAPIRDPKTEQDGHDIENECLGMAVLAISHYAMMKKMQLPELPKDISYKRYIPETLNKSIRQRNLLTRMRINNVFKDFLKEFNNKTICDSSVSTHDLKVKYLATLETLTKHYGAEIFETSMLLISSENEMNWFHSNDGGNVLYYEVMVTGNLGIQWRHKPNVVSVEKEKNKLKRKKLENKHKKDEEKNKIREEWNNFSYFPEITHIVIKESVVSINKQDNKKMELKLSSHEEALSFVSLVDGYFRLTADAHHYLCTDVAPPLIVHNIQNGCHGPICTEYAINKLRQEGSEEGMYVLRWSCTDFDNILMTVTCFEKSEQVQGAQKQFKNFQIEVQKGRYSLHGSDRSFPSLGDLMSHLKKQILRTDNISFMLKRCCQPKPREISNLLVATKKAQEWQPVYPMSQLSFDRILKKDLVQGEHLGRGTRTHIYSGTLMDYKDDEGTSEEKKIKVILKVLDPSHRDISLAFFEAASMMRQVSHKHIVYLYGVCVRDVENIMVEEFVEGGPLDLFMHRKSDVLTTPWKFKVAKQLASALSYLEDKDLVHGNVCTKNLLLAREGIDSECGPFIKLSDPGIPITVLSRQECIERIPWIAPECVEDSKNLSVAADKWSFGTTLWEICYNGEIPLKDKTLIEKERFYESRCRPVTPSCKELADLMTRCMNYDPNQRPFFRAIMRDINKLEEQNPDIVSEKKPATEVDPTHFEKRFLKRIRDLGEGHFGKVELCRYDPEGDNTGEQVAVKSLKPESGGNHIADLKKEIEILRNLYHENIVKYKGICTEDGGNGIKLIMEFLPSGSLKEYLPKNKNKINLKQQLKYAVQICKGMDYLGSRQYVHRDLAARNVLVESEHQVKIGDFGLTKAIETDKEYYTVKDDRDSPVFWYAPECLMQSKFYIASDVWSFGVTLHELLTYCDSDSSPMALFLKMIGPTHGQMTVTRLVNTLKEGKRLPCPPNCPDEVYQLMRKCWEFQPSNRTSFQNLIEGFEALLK", "experiment": "In vitro enzyme assay (Cisbio kinase assay), JAK1", "assay_type": "biochemical", "settings": "ATP 300 μM; read-out: Enzymatic assay: IC50 JAK1"}, "[11]": {"biological_target": "T5, CYP2D6 (Homo sapiens, UniProt P10635)", "T5 construct": "Human pooled liver microsomes of mixed gender (mainly Caucasian); from tissue; host or cells: pooled human liver microsomes", "T5 sequence (P10635 whole entry)": "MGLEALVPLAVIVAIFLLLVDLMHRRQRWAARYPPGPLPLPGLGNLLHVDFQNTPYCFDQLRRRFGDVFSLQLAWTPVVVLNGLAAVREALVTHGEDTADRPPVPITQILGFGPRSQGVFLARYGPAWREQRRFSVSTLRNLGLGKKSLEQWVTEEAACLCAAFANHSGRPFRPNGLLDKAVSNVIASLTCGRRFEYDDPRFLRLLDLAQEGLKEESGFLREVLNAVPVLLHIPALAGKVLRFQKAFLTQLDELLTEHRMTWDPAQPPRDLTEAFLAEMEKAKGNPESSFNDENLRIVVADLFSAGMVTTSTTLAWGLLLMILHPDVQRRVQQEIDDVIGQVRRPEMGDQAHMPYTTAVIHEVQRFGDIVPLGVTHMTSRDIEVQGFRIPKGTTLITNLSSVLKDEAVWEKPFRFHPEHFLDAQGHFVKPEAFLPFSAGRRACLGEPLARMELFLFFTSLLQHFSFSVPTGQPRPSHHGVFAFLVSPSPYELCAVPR", "experiment": "CYP2D6 inhibition in human liver microsomes", "assay_type": "in vitro ADME", "settings": "dextromethorphan, CRL data", "description": "After 5 min at 37° C. incubations were started with NADPH and prolonged for 10 min. The test compound was tested up to 30 μM keeping the final concentration of organic solvent was below 0.5%. The final concentration of microsomes was 0.1 mg/ml to ensure linearity during the time of the incubation. The reaction was quenched by adding 3 volume of acetonitrile. After centrifugation the supernatant was analyzed by HPLC/MS/MS for the formation of des-methyldextromethorphane selectively produced by CYP2D6 and 1′hydroxymidazolam or 6p-hydroxytestosterone, selectively produced by CYP3A. IC50 was calculated with Graphpad Prism v.7 comparing the amount of metabolite produced in presence of the test compound with that produced in absence of test item."}, "[12]": {"experiment": "Intrinsic clearance in hepatocytes, rat", "assay_type": "in vitro ADME, male Wistar Han rats", "settings": "2.5 μM", "description": "as §1"}, "[13]": {"system": "kinase panel (403)", "experiment": "Kinase selectivity S35 / S1 at 10 μM", "assay_type": "binding"}, "[14]": {"experiment": "Human skin ex vivo: flux through skin and dermis concentration (Franz cells)", "assay_type": "in vitro ADME", "settings": "PG/H2O cream 1 mg/mL, human skin"}, "[15]": {"experiment": "Protein binding analysis (RED), human plasma", "assay_type": "in vitro ADME", "settings": "5 μM", "description": "as §2"}, "[16]": {"system": "p-STAT3Y705 in skin", "experiment": "In vivo pharmacodynamy model: IL-6 induced Phospho-STAT3, topical", "parameters": "species or system BALB/c ByJ Rj mice; PD/IL6 mouse top @1 mM % vs Tofa: unit not given here", "settings": "topical 1 mM, PG/EtOH 3/7"}},
  "data": [
    {"smiles": "O=S(=O)(N[C@H]1C[C@@H](N2CCOc3cnc4[nH]ccc4c32)C1)C1CN(C2CC2)C1", "note": "[Compound E, 1-Cyclopropyl-N-((cis)-3-(2,3-dihydropyrrolo[3′,2′:5,6]pyrido[3,4-b][1,4]oxazin-1(7H)-yl)cyclobutyl)azetidine-3-sulfonamide]", "values": [
      {"measurement": "Intr. Clear. minipig heps", "setting": "[1]", "value": 44, "unit": "microL/min/10 6 cells"},
      {"measurement": "IC50", "setting": "[2]", "value": 15, "unit": "µM"},
      {"measurement": "iv PK minipig: ER", "setting": "[3]", "value": 171, "unit": "%"},
      {"measurement": "clearance", "setting": "[3]; male, Göttingen, whole blood, read-out: iv PK minipig: Cl", "value": 48, "unit": "mL/min/kg"},
      {"measurement": "mFU", "setting": "[4]", "value": 28, "unit": "%"},
      {"measurement": "fraction unbound at 4 h, 5 μM", "setting": "[5]", "value": 0.32},
      {"measurement": "chromatographic logD", "setting": "[6]", "value": 0.8},
      {"measurement": "IC50", "setting": "[7]", "value": 3.45, "unit": "µM"},
      {"measurement": "IC50", "setting": "[8]", "value": 5, "unit": "µM"},
      {"measurement": "Intr. Clear. mheps", "setting": "[9]", "value": 28, "unit": "microL/min/10 6 cells"},
      {"measurement": "IC50", "setting": "[10]", "value": 0.009, "unit": "µM"},
      {"measurement": "IC50", "setting": "[11]", "value": 20, "unit": "µM"},
      {"measurement": "Intr. Clear. rheps", "setting": "[12]", "value": 40, "unit": "microL/min/10 6 cells"},
      {"measurement": "Selectivity (S1): number of kinases out of panel", "setting": "[13]", "value": "1/403"},
      {"measurement": "dermis concentration", "setting": "[14]", "value": 2.2, "unit": "µM"},
      {"measurement": "measured flux 6-24 hr", "setting": "[14]", "value": "< 0.24", "unit": "ng/cm^2/hr"},
      {"measurement": "hFU", "setting": "[15]", "value": 23, "unit": "%"},
      {"measurement": "PD/IL6 mouse top @1 mM % inh vs vehicle", "setting": "[16]", "value": 63, "unit": "%"},
      {"measurement": "PD/IL6 mouse top @1 mM % vs Tofa", "setting": "[16]", "value": 0.97}
    ]}
  ]
}
